The compounds below were run on ABUTH (assay: Greenhouse test, pre-emergence treatment). Settings: 125 g/ha.
Type: in vivo, Abutilon theophrasti
From the text: (§1) The seeds of the test plants were sown separately for each species. For the pre-emergence treatment, the active ingredients, which had been suspended or emulsified in water, were applied directly after sowing by means of finely distributing nozzles. The containers were irrigated gently to promote germination and growth and subsequently covered with transparent plastic hoods until the plants had rooted. This cover caused uniform germination of the test plants, unless this had been impaired by the active ingredients. Depending on the species, the plants were kept at 10-25° C. or 20-35° C., respectively. The test period extended over 2 to 4 weeks. During this time, the plants were tended, and their response to the individual treatments was evaluated. Evaluation was carried out using a scale from 0 to 100. 100 means no emergence of the plants, or complete destruction of at least the aerial moieties, and 0 means no damage, or normal course of growth. […] The plants used in the greenhouse experiments were of the following species: [table]

| Compound | herbicidal activity |
| --- | --- |
| CCC(C)c1nc(N)nc(Nc2c(F)ccc3c2OCO3)n1 (racemic) [Example 16] | good (a good herbicidal activity is given at values of at least 70) |
| COC(C)c1nc(N)nc(Nc2c(F)ccc3c2OCO3)n1 (racemic) [Example 32] | good (a good herbicidal activity is given at values of at least 70) |
| CC(C)(F)c1nc(N)nc(Nc2c(Br)c(Br)cc3c2OCO3)n1 [Example 4] | good (a good herbicidal activity is given at values of at least 70) |
| CC(C)c1nc(N)nc(Nc2c(F)ccc3c2OCO3)n1 [Example 17] | good (a good herbicidal activity is given at values of at least 70) |
| CC(C)(C)Cc1nc(N)nc(Nc2c(F)ccc3c2OCO3)n1 [Example 24] | very good (a very good herbicidal activity is given at values of at least 85) |
| CC(C)(C)c1nc(N)nc(Nc2c(F)ccc3c2OCO3)n1 [Example 29] | very good (a very good herbicidal activity is given at values of at least 85) |
| CC(C)(F)c1nc(N)nc(Nc2c(F)ccc3c2OC=CO3)n1 [Example 45] | very good (a very good herbicidal activity is given at values of at least 85) |

Same assay, conditions: 250 g/ha

| Compound | herbicidal activity |
| --- | --- |
| CC1Oc2ccc(Cl)c(Nc3nc(N)nc(C(C)(C)F)n3)c2O1 (racemic) [Example 12] | very good (a very good herbicidal activity is given at values of at least 85) |
| CC1Oc2ccc(F)c(Nc3nc(N)nc(C(C)(C)F)n3)c2O1 (single isomer, unassigned) [Example 7] | very good (a very good herbicidal activity is given at values of at least 85) |
| CC1Oc2ccc(F)c(Nc3nc(N)nc(C(C)(C)F)n3)c2O1 (single isomer, unassigned) [Example 8] | very good (a very good herbicidal activity is given at values of at least 85) |
| CC1(C)Oc2ccc(Cl)c(Nc3nc(N)nc(C(C)(C)F)n3)c2O1 [Example 11] | very good (a very good herbicidal activity is given at values of at least 85) |
| CC1(C)Oc2ccc(F)c(Nc3nc(N)nc(C(C)(C)F)n3)c2O1 [Example 14] | very good (a very good herbicidal activity is given at values of at least 85) |
| Nc1nc(Nc2c(F)ccc3c2OCO3)nc(C2(F)CCCC2)n1 [Example 15] | very good (a very good herbicidal activity is given at values of at least 85) |
| CC(C)(F)c1nc(N)nc(Nc2c(F)ccc3ncoc23)n1 [Example 39] | very good (a very good herbicidal activity is given at values of at least 85) |
| CC(C)(F)c1nc(N)nc(Nc2c(Cl)ccc3c2CCC3)n1 [Example 47] | good (a good herbicidal activity is given at values of at least 70) |

What follows are compounds tested on ECHCG (assay: Greenhouse test, pre-emergence treatment). Settings: 125 g/ha.
Type: in vivo, Echinocloa crus-galli
From the text: as §1

| Compound | herbicidal activity |
| --- | --- |
| COC1(c2nc(N)nc(Nc3c(F)ccc4c3OCO4)n2)CCCCC1 [Example 23] | good (a good herbicidal activity is given at values of at least 70) |
| CC(C)(C)Cc1nc(N)nc(Nc2c(F)ccc3c2OCO3)n1 [Example 24] | very good (a very good herbicidal activity is given at values of at least 85) |
| CC(C)(C)c1nc(N)nc(Nc2c(F)ccc3c2OCO3)n1 [Example 29] | very good (a very good herbicidal activity is given at values of at least 85) |

Same assay, conditions: 250 g/ha

| Compound | herbicidal activity |
| --- | --- |
| CC1Oc2ccc(Cl)c(Nc3nc(N)nc(C(C)(C)F)n3)c2O1 (racemic) [Example 12] | very good (a very good herbicidal activity is given at values of at least 85) |
| CC1(C)Oc2ccc(Cl)c(Nc3nc(N)nc(C(C)(C)F)n3)c2O1 [Example 11] | very good (a very good herbicidal activity is given at values of at least 85) |
| CC1(C)Oc2ccc(F)c(Nc3nc(N)nc(C(C)(C)F)n3)c2O1 [Example 14] | very good (a very good herbicidal activity is given at values of at least 85) |
| CC(C)(F)c1nc(N)nc(Nc2c(Cl)ccc3c2CCC3)n1 [Example 47] | good (a good herbicidal activity is given at values of at least 70) |

The compounds below were run on AMARE (assay: Greenhouse test, pre-emergence treatment). Settings: 125 g/ha.
Type: in vivo, Amaranthus retroflexus
From the text: as §1

| Compound | herbicidal activity |
| --- | --- |
| CCC(C)c1nc(N)nc(Nc2c(F)ccc3c2OCO3)n1 (racemic) [Example 16] | very good (a very good herbicidal activity is given at values of at least 85) |
| COC(C)c1nc(N)nc(Nc2c(F)ccc3c2OCO3)n1 (racemic) [Example 32] | good (a good herbicidal activity is given at values of at least 70) |
| CC(C)(C)Cc1nc(N)nc(Nc2c(F)ccc3c2OCO3)n1 [Example 24] | very good (a very good herbicidal activity is given at values of at least 85) |

Same assay, conditions: 250 g/ha

| Compound | herbicidal activity |
| --- | --- |
| CC1Oc2ccc(Cl)c(Nc3nc(N)nc(C(C)(C)F)n3)c2O1 (racemic) [Example 12] | very good (a very good herbicidal activity is given at values of at least 85) |
| CC1Oc2ccc(F)c(Nc3nc(N)nc(C(C)(C)F)n3)c2O1 (single isomer, unassigned) [Example 7] | very good (a very good herbicidal activity is given at values of at least 85) |
| CC1Oc2ccc(F)c(Nc3nc(N)nc(C(C)(C)F)n3)c2O1 (single isomer, unassigned) [Example 8] | very good (a very good herbicidal activity is given at values of at least 85) |
| CC1(C)Oc2ccc(Cl)c(Nc3nc(N)nc(C(C)(C)F)n3)c2O1 [Example 11] | very good (a very good herbicidal activity is given at values of at least 85) |
| CC1(C)Oc2ccc(F)c(Nc3nc(N)nc(C(C)(C)F)n3)c2O1 [Example 14] | very good (a very good herbicidal activity is given at values of at least 85) |
| Nc1nc(Nc2c(F)ccc3c2OCO3)nc(C2(F)CCCC2)n1 [Example 15] | very good (a very good herbicidal activity is given at values of at least 85) |

Same assay, conditions: Amaranthus retroflexus, read-out: herbicidal activity, 125 g/ha

| Compound | pest or weed control at 125 g/ha |
| --- | --- |
| CC(C)c1nc(N)nc(Nc2c(F)ccc3c2OCO3)n1 [Example 17] | ≥ 85% |
| COC1(c2nc(N)nc(Nc3c(F)ccc4c3OCO4)n2)CCCCC1 [Example 23] | ≥ 85% |
| CC(C)(C)c1nc(N)nc(Nc2c(F)ccc3c2OCO3)n1 [Example 29] | ≥ 85% |
| CC(C)(F)c1nc(N)nc(Nc2c(F)ccc3c2OC=CO3)n1 [Example 45] | ≥ 85% |

Same assay, conditions: Amaranthus retroflexus, read-out: herbicidal activity, 250 g/ha

| Compound | pest or weed control at 250 g/ha |
| --- | --- |
| CC(C)(F)c1nc(N)nc(Nc2c(F)ccc3ncoc23)n1 [Example 39] | ≥ 85% |

These compounds were tested on SETFA (assay: Greenhouse test, pre-emergence treatment). Settings: 125 g/ha, SETFA.
Type: in vivo, Setaria faberi
From the text: as §1

| Compound | herbicidal activity |
| --- | --- |
| COC1(c2nc(N)nc(Nc3c(F)ccc4c3OCO4)n2)CCCCC1 [Example 23] | good (a good herbicidal activity is given at values of at least 70) |

Same assay, conditions: 250 g/ha, SETFA

| Compound | herbicidal activity |
| --- | --- |
| CC1Oc2ccc(F)c(Nc3nc(N)nc(C(C)(C)F)n3)c2O1 (single isomer, unassigned) [Example 7] | very good (a very good herbicidal activity is given at values of at least 85) |
| CC1Oc2ccc(F)c(Nc3nc(N)nc(C(C)(C)F)n3)c2O1 (single isomer, unassigned) [Example 8] | very good (a very good herbicidal activity is given at values of at least 85) |
| Nc1nc(Nc2c(F)ccc3c2OCO3)nc(C2(F)CCCC2)n1 [Example 15] | very good (a very good herbicidal activity is given at values of at least 85) |

— patent US9822105B2, “Diaminotriazine compounds as herbicides” (BASF SE, priority 2014, dated 2017)
